Test results published in patent publication US7994140B2, “Classes of compounds that interact with GPCRs” (Alchemia Limited, priority 2002, dated 2011).

Biological target: T1, MC4 (Homo sapiens, UniProt P32245)
T1 construct: purchased Perkin Elmer BioSignal; host or cells: HEK 293
Experiment: GPCR radioligand binding (RLB) assay, melanocortin MC4, [125I]NDP-αMSH
Conditions: for MC4 Inhibition at 4.0 Micromolar: Example Library 10; for MC4 inhibition at 10 micromolar: 10 micromolar compound, recombinant human receptor membranes (HEK 293)
Procedure: Recombinant human receptors expressed in HEK 293 cells were used for all experiments. Receptor membrane preparations were purchased from Perkin Elmer BioSignal. The labelled ligand used in somatostatin GPCR RLB assays was [^125I]SST-14 and in melanocortin assays was [^125I]NDP-αMSH. All assays were done in a 96-well plate format using either glass fiber filter mats or filter plates. All reagents purchased were of the highest quality.
Specific assay buffer, incubation and washing conditions were optimized for each receptor however they all followed the same general format. The procedures for both filter mat and filter plate formats are based on the receptor manufacturers recommendations or those described extensively in the literature. The procedures are briefly outlined below.
In assays where filter mats are used we incubate receptor membranes, assay buffer and [^125I] labelled ligand in 96 well microplates. Add compounds to incubation mixture and continue incubation for optimized period. Presoak Filter mat GF/B in 0.5% PEI for ˜2 hr at 4° C. On completion of assay mixture incubation add additional 100 μL/well of assay buffer immediately prior to filtration. Filter the assay mixture onto the GF/B filter mat using a cell harvester. Dry the filter mats prior to sealing them into a scintillation counting bag with scintillant. Radioactivity in each well is detected by liquid scintillation counting.
In assays where filter plates are used Multiscreen glass fiber filter plates (Millipore, Cat No MAFCNOB10) are precoated with 0.5% PEI for ˜2 hr at 4° C. All wells are then washed with 200 µl/well assay buffer and filtered using the Multiscreen Separation System. Subsequently receptor membranes, assay buffer and labelled ligands are added to the wells and equilibrated. Compounds for testing are then added to the mixture and incubation is continued for an optimized time. Plates are then put into the Multiscreen Separation System and the assay mixture is filtered through the plate under vacuum. Each well is then washed several times with assay buffer. Plates are then dried prior to putting sealing tape onto the bottom of the plate. Scintillant is added to each well and radioactivity measured by liquid scintillation counting.
Raw data was analysed according to standard methods using either GraphPad Prism software or IDDBS ActivityBase software.

T1 sequence (P32245 whole entry): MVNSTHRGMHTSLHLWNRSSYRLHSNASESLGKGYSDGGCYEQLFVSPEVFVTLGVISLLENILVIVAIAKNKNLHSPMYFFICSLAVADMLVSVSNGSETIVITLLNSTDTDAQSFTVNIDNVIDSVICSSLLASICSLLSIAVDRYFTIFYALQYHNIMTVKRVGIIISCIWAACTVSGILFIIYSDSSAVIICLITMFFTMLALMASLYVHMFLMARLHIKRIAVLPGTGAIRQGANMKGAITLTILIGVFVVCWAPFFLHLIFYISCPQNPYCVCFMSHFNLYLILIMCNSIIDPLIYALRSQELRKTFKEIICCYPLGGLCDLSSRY

SMILES | MC4 Inhibition at 4.0 Micromolar | MC4 inhibition at 10 micromolar
NCCC(=O)N[C@H]1C(OCc2ccc3ccccc3c2)O[C@H](COCc2ccccc2)[C@@H](O)[C@@H]1OCc1ccccc1 (single isomer, unassigned) [Compound 362] | + (Indicates inhibition greater than . . . 50%) | 
NCCC(=O)N[C@H]1C(OCc2ccc3ccccc3c2)O[C@H](COCc2ccccc2)[C@@H](O)[C@@H]1OCc1ccccc1 (single isomer, unassigned) [Compound 363] | + (Indicates inhibition greater than . . . 50%) | 
NCCCC(=O)N[C@H]1C(OCc2ccc3ccccc3c2)O[C@H](COCc2ccc3ccccc3c2)[C@@H](O)[C@@H]1OCc1ccc(Cl)cc1 (single isomer, unassigned) [Compound 365] | + (Indicates inhibition greater than . . . 50%) | 
NCCCC(=O)N[C@H]1C(OCc2ccc3ccccc3c2)O[C@H](COCc2ccc3ccccc3c2)[C@@H](O)[C@@H]1OCc1ccc(Cl)cc1 (single isomer, unassigned) [Compound 366] | + (Indicates inhibition greater than . . . 50%) | 
NCCCC(=O)N[C@H]1C(OCc2ccc3ccccc3c2)O[C@H](COCc2ccc(Cl)cc2)[C@@H](O)[C@@H]1OCc1ccc(Cl)cc1 (single isomer, unassigned) [Compound 367] | + (Indicates inhibition greater than . . . 50%) | 
NCCCC(=O)N[C@H]1C(OCc2ccc3ccccc3c2)O[C@H](COCc2ccc(Cl)cc2)[C@@H](O)[C@@H]1OCc1ccc(Cl)cc1 (single isomer, unassigned) [Compound 368] | + (Indicates inhibition greater than . . . 50%) | 
NCCCC(=O)N[C@H]1C(OCc2ccc3ccccc3c2)O[C@H](COCc2ccc(Cl)cc2)[C@@H](O)[C@@H]1OCc1ccc2ccccc2c1 (single isomer, unassigned) [Compound 370] | + (Indicates inhibition greater than . . . 50%) | 
NCCCC(=O)N[C@H]1C(OCc2ccc3ccccc3c2)O[C@H](COCc2ccc(Cl)cc2)[C@@H](O)[C@@H]1OCc1ccc2ccccc2c1 (single isomer, unassigned) [Compound 371] | + (Indicates inhibition greater than . . . 50%) | 
NCCCC(=O)N[C@H]1C(OCc2ccc3ccccc3c2)O[C@H](COCc2ccc3ccccc3c2)[C@@H](O)[C@@H]1OCc1ccccc1 (single isomer, unassigned) [Compound 372] | + (Indicates inhibition greater than . . . 50%) | 
NCCCC(=O)N[C@H]1C(OCc2ccc3ccccc3c2)O[C@H](COCc2ccc3ccccc3c2)[C@@H](O)[C@@H]1OCc1ccccc1 (single isomer, unassigned) [Compound 373] | + (Indicates inhibition greater than . . . 50%) | 
NCCCC(=O)N[C@H]1C(OCc2ccc(Cl)cc2)O[C@H](COCc2ccc3ccccc3c2)[C@@H](O)[C@@H]1OCc1ccc2ccccc2c1 (single isomer, unassigned) [Compound 389] | + (Indicates inhibition greater than . . . 50%) | 
NCCCC(=O)N[C@H]1C(OCc2ccc(Cl)cc2)O[C@H](COCc2ccc3ccccc3c2)[C@@H](O)[C@@H]1OCc1ccc2ccccc2c1 (single isomer, unassigned) [Compound 390] | + (Indicates inhibition greater than . . . 50%) | 
NCCCC(=O)N[C@H]1C(OCc2ccc(Cl)cc2)O[C@H](COCc2ccccc2)[C@@H](O)[C@@H]1OCc1ccc2ccccc2c1 (single isomer, unassigned) [Compound 391] | + (Indicates inhibition greater than . . . 50%) | 
NCCCC(=O)N[C@H]1C(OCc2ccc(Cl)cc2)O[C@H](COCc2ccccc2)[C@@H](O)[C@@H]1OCc1ccc2ccccc2c1 (single isomer, unassigned) [Compound 392] | + (Indicates inhibition greater than . . . 50%) | 
NCCCC(=O)N[C@H]1C(OCc2ccc(Cl)cc2)O[C@H](COCc2ccc(Cl)cc2)[C@@H](O)[C@@H]1OCc1ccc2ccccc2c1 (single isomer, unassigned) [Compound 393] | + (Indicates inhibition greater than . . . 50%) | 
NCCCC(=O)N[C@H]1C(OCc2ccc(Cl)cc2)O[C@H](COCc2ccc(Cl)cc2)[C@@H](O)[C@@H]1OCc1ccc2ccccc2c1 (single isomer, unassigned) [Compound 394] | + (Indicates inhibition greater than . . . 50%) | 
COC[C@H]1OC(OCc2ccccc2)[C@H](NC(=O)CNC(=N)N)[C@@H](OCc2ccc(-c3ccccc3)cc2)[C@@H]1O (stereo partly drawn) [Compound 5] |  | + (Indicates inhibition greater than . . . 50%)
COC[C@H]1OC(OCCc2ccccc2)[C@H](NC(=O)CNC(=N)N)[C@@H](OCc2ccc(-c3ccccc3)cc2)[C@@H]1O (stereo partly drawn) [Compound 19] |  | + (Indicates inhibition greater than . . . 50%)

SMILES | MC4 Inhibition at 4.0 Micromolar | MC4 inhibition at 10 micromolar
COC[C@H]1OC(OCCc2ccccc2)[C@H](NC(=O)CCNC(=N)N)[C@@H](OCc2ccc(-c3ccccc3)cc2)[C@@H]1O (stereo partly drawn) [Compound 20] |  | + (Indicates inhibition greater than . . . 50%)
CO[C@H]1[C@H](O)[C@@H](COCc2ccc(-c3ccccc3)cc2)OC(OCc2ccc(-c3ccccc3)cc2)[C@@H]1NC(=O)CCCNC(=N)N (stereo partly drawn) [Compound 58] |  | + (Indicates inhibition greater than . . . 50%)
CO[C@H]1[C@H](O)[C@@H](COCc2ccc3ccccc3c2)OC(OCc2ccc(-c3ccccc3)cc2)[C@@H]1NC(=O)CNC(=N)N (stereo partly drawn) [Compound 59] |  | + (Indicates inhibition greater than . . . 50%)
COC1C(O)C(COCc2ccc3ccccc3c2)OC(OCc2ccc(-c3ccccc3)cc2)C1NC(=O)CCCNC(=N)N (stereo not drawn) [Compound 62] |  | + (Indicates inhibition greater than . . . 50%)
COC1C(O)C(COCc2ccc(Cl)cc2)OC(OCc2ccc(-c3ccccc3)cc2)C1NC(=O)CNC(=N)N (stereo not drawn) [Compound 63] |  | + (Indicates inhibition greater than . . . 50%)
COC1C(O)C(COCc2ccc(Cl)cc2)OC(OCc2ccc(-c3ccccc3)cc2)C1NC(=O)CCNC(=N)N (stereo not drawn) [Compound 64] |  | + (Indicates inhibition greater than . . . 50%)
COC1C(O)C(COCc2ccc(Cl)cc2)OC(OCc2ccc(-c3ccccc3)cc2)C1NC(=O)CCCN (stereo not drawn) [Compound 65] |  | + (Indicates inhibition greater than . . . 50%)
COC1C(O)C(COCc2ccc(Cl)cc2)OC(OCc2ccc(-c3ccccc3)cc2)C1NC(=O)CCCNC(=N)N (stereo not drawn) [Compound 66] |  | + (Indicates inhibition greater than . . . 50%)
COC1C(O)C(COCc2ccc(-c3ccccc3)cc2)OC(OCc2ccc3ccccc3c2)C1NC(=O)CNC(=N)N (stereo not drawn) [Compound 67] |  | + (Indicates inhibition greater than . . . 50%)
COC1C(O)C(COCc2ccc(-c3ccccc3)cc2)OC(OCc2ccc3ccccc3c2)C1NC(=O)CCNC(=N)N (stereo not drawn) [Compound 68] |  | + (Indicates inhibition greater than . . . 50%)
COC1C(O)C(COCc2ccc(-c3ccccc3)cc2)OC(OCc2ccc3ccccc3c2)C1NC(=O)CCCNC(=N)N (stereo not drawn) [Compound 70] |  | + (Indicates inhibition greater than . . . 50%)
COC1C(O)C(COCc2ccc3ccccc3c2)OC(OCc2ccc3ccccc3c2)C1NC(=O)CNC(=N)N (stereo not drawn) [Compound 71] |  | + (Indicates inhibition greater than . . . 50%)
COC1C(O)C(COCc2ccc3ccccc3c2)OC(OCc2ccc3ccccc3c2)C1NC(=O)CCNC(=N)N (stereo not drawn) [Compound 72] |  | + (Indicates inhibition greater than . . . 50%)
COC1C(O)C(COCc2ccc3ccccc3c2)OC(OCc2ccc3ccccc3c2)C1NC(=O)CCCNC(=N)N (stereo not drawn) [Compound 74] |  | + (Indicates inhibition greater than . . . 50%)
COC1C(O)C(COCc2ccc(Cl)cc2)OC(OCc2ccc3ccccc3c2)C1NC(=O)CNC(=N)N (stereo not drawn) [Compound 75] |  | + (Indicates inhibition greater than . . . 50%)
COC1C(O)C(COCc2ccc(Cl)cc2)OC(OCc2ccc3ccccc3c2)C1NC(=O)CCNC(=N)N (stereo not drawn) [Compound 76] |  | + (Indicates inhibition greater than . . . 50%)
COC1C(O)C(COCc2ccc(Cl)cc2)OC(OCc2ccc3ccccc3c2)C1NC(=O)CCCNC(=N)N (stereo not drawn) [Compound 78] |  | + (Indicates inhibition greater than . . . 50%)
COC1C(O)C(COCc2ccc(-c3ccccc3)cc2)OC(OCc2ccccc2)C1NC(=O)CCCNC(=N)N (stereo not drawn) [Compound 79] |  | + (Indicates inhibition greater than . . . 50%)
